Source: ChEMBL document CHEMBL1151504, “Structure-activity relationships of double-strand RGD peptides as GPIIb/IIIa receptor antogonists” (Bioorg Med Chem Lett, 1994)
Numbered stars: 1 amine (or outer) side, 2 acyl side, 3 side chain; on linkers, the order of the positions; unused ones are H or OH. Bridge positions count the residues as written; N and C are the ends. Square brackets hold non-standard residues; d marks the D form. Peptide text beside a SMILES is read from it. I, II: the chains in the order shown. * marks the point of attachment. Benzoyl(4-guanidino) = N=C(N)Nc1ccc(C(=O)*)cc1; X1 = NC(=O)c1cc(N[*:1])cc(N[*:2])c1; Adipoyl = O=C(CCCCC(=O)[*:2])[*:1]; Glutaryl = O=C(CCCC(=O)[*:2])[*:1]; Suc = O=C(CCC(=O)[*:2])[*:1]; X2 = O=C1Oc2ccccc2CC1C(=O)*; 3Abz = Nc1cccc(C(=O)O)c1; 4Abz = Nc1ccc(C(=O)O)cc1; 2Abz = Nc1ccccc1C(=O)O; Hexanoyl = CCCCCC(=O)*; Bz = O=C(c1ccccc1)*

Organism: Homo sapiens
Test: In vitro inhibition of ADP induced human platelet aggregation in platelet rich plasma(PRP) and presence of Tris buffer.
Assay type: functional

## N=C(N)NCCC[C@H](NC(=O)CCCC(=O)N[C@@H](CCCNC(=N)N)C(=O)NCC(=O)N[C@@H](CC(=O)O)C(=O)N[C@@H](Cc1ccccc1)C(=O)O)C(=O)NCC(=O)N[C@@H](CC(=O)O)C(=O)N[C@@H](Cc1ccccc1)C(=O)O (I: RGDF-OH / II: RGDF-OH; linker I:N-II:N via Glutaryl)
  IC50: 15 µM

## CCCCCC(=O)N[C@@H](CCCN=C(N)N)C(=O)NCC(=O)N[C@@H](CC(=O)O)C(=O)N[C@@H](Cc1ccccc1)C(=O)NCCCC[C@H](NC(=O)[C@H](Cc1ccccc1)NC(=O)[C@H](CC(=O)O)NC(=O)CNC(=O)[C@H](CCCN=C(N)N)NC(=O)CCCCC)C(N)=O
  IC50: 2.3 µM

## NCC(=O)N[C@@H](CCCN=C(N)N)C(=O)NCC(=O)N[C@@H](CC(=O)O)C(=O)N[C@@H](Cc1ccccc1)C(=O)NCC(=O)Nc1ccc(C(=O)NCC(=O)N[C@@H](CCCN=C(N)N)C(=O)NCC(=O)N[C@@H](CC(=O)O)C(=O)N[C@@H](Cc2ccccc2)C(=O)O)cc1 (H-GRGDFG[4Abz]GRGDF-OH)
  IC50: 35 µM

## N=C(N)NCCC[C@H](NC(=O)CCC(=O)N[C@@H](CCCNC(=N)N)C(=O)NCC(=O)N[C@@H](CC(=O)O)C(=O)N[C@@H](Cc1ccccc1)C(=O)O)C(=O)NCC(=O)N[C@@H](CC(=O)O)C(=O)N[C@@H](Cc1ccccc1)C(=O)O (I: RGDF-OH / II: RGDF-OH; linker I:N-II:N via Suc)
  IC50: 15 µM

## NCC(=O)N[C@@H](CCCN=C(N)N)C(=O)NCC(=O)N[C@@H](CC(=O)O)C(=O)N[C@@H](Cc1ccccc1)C(=O)NCC(=O)Nc1cccc(C(=O)NCC(=O)N[C@@H](CCCN=C(N)N)C(=O)NCC(=O)N[C@@H](CC(=O)O)C(=O)N[C@@H](Cc2ccccc2)C(=O)O)c1 (H-GRGDFG[3Abz]GRGDF-OH)
  IC50: 19 µM

## NC(=O)C1CC(NC(=O)[C@H](Cc2ccccc2)NC(=O)[C@H](CC(=O)O)NC(=O)CNC(=O)[C@@H](N)CCCN=C(N)N)CC(NC(=O)[C@H](Cc2ccccc2)NC(=O)[C@H](CC(=O)O)NC(=O)CNC(=O)[C@@H](N)CCCN=C(N)N)C1 (stereo partly specified)
  IC50: 50 µM

## N=C(N)NCCC[C@H](NC(=O)CCCCC(=O)N[C@@H](CCCNC(=N)N)C(=O)NCC(=O)N[C@@H](CC(=O)O)C(=O)N[C@@H](Cc1ccccc1)C(=O)O)C(=O)NCC(=O)N[C@@H](CC(=O)O)C(=O)N[C@@H](Cc1ccccc1)C(=O)O (I: RGDF-OH / II: RGDF-OH; linker I:N-II:N via Adipoyl)
  IC50: 14 µM

## NC(=O)c1cc(NC(=O)CNC(=O)[C@@H]2CCCN2C(=O)[C@H](Cc2ccccc2)NC(=O)[C@H](CC(=O)O)NC(=O)CNC(=O)[C@@H](N)CCCN=C(N)N)cc(NC(=O)CNC(=O)[C@@H]2CCCN2C(=O)[C@H](Cc2ccccc2)NC(=O)[C@H](CC(=O)O)NC(=O)CNC(=O)[C@@H](N)CCCN=C(N)N)c1 (I: H-RGDFPG / II: H-RGDFPG; linker I:C-II:C via X1)
  IC50: 13 µM

## CCCCCC(=O)N[C@@H](CCCN=C(N)N)C(=O)NCC(=O)N[C@@H](CC(=O)O)C(=O)N[C@@H](Cc1ccccc1)C(=O)N1CCC[C@H]1C(=O)NCC(=O)Nc1cc(NC(=O)CNC(=O)[C@H]2CCCN2C(=O)[C@@H](Cc2ccccc2)NC(=O)[C@@H](CC(=O)O)NC(=O)CNC(=O)[C@@H](CCCN=C(N)N)NC(=O)CCCCC)cc(C(N)=O)c1
  IC50: 0.35 µM

## NC(N)=NCCC[C@H](NC(=O)C1CC(NC(=O)[C@H](Cc2ccccc2)NC(=O)[C@H](CC(=O)O)NC(=O)CNC(=O)[C@@H](N)CCCN=C(N)N)CC(NC(=O)[C@H](Cc2ccccc2)NC(=O)[C@H](CC(=O)O)NC(=O)CNC(=O)[C@@H](N)CCCN=C(N)N)C1)C(=O)NCC(=O)N[C@@H](CC(=O)O)C(=O)N[C@@H](Cc1ccccc1)C(=O)O (stereo partly specified)
  IC50: 22 µM

## NCC(=O)N[C@@H](CCCN=C(N)N)C(=O)NCC(=O)N[C@@H](CC(=O)O)C(=O)N[C@@H](Cc1ccccc1)C(=O)NCC(=O)Nc1cc(NC(=O)CNC(=O)[C@H](Cc2ccccc2)NC(=O)[C@H](CC(=O)O)NC(=O)CNC(=O)[C@H](CCCN=C(N)N)NC(=O)CN)cc(C(=O)NCC(=O)N[C@@H](CCCN=C(N)N)C(=O)NCC(=O)N[C@@H](CC(=O)O)C(=O)N[C@@H](Cc2ccccc2)C(N)=O)c1
  IC50: 33 µM

## N=C(N)NCCC[C@H](NC(=O)c1ccccc1)C(=O)NCC(=O)N[C@@H](CC(=O)O)C(=O)N[C@@H](Cc1ccccc1)C(=O)N1CCC[C@H]1C(=O)NCCCC[C@H](NC(=O)[C@@H]1CCCN1C(=O)[C@H](Cc1ccccc1)NC(=O)[C@H](CC(=O)O)NC(=O)CNC(=O)[C@H](CCCN=C(N)N)NC(=O)c1ccccc1)C(N)=O (I: Bz-RGDFPK-NH2 / II: Bz-RGDFP; amide I:6-II:C)
  IC50: 2.2 µM

## CC(=O)N[C@@H](CCCN=C(N)N)C(=O)NCC(=O)N[C@@H](CC(=O)O)C(=O)N[C@@H](Cc1ccccc1)C(=O)N1CCC[C@H]1C(=O)NCCCC[C@H](NC(=O)[C@@H]1CCCN1C(=O)[C@H](Cc1ccccc1)NC(=O)[C@H](CC(=O)O)NC(=O)CNC(=O)[C@H](CCCN=C(N)N)NC(C)=O)C(N)=O (I: Ac-RGDFPK-NH2 / II: Ac-RGDFP; amide I:6-II:C)
  IC50: 4.1 µM

## N=C(N)NCCC[C@@H](NC(=O)c1ccccc1C(=O)N[C@@H](CCCN=C(N)N)C(=O)NCC(=O)N[C@@H](CC(=O)O)C(=O)N[C@@H](Cc1ccccc1)C(=O)O)C(=O)NCC(=O)N[C@H](CC(=O)O)C(=O)N[C@H](Cc1ccccc1)C(=O)O
  IC50: 13 µM

## N=C(N)NCCC[C@H](NC(=O)C1Cc2ccccc2OC1=O)C(=O)NCC(=O)N[C@@H](CC(=O)O)C(=O)N[C@@H](Cc1ccccc1)C(=O)N1CCC[C@H]1C(=O)NCCCC[C@H](NC(=O)[C@@H]1CCCN1C(=O)[C@H](Cc1ccccc1)NC(=O)[C@H](CC(=O)O)NC(=O)CNC(=O)[C@H](CCCNC(=N)N)NC(=O)C1Cc2ccccc2OC1=O)C(N)=O (stereo partly specified) (I: X2-RGDFPK-NH2 / II: X2-RGDFP; amide I:6-II:C)
  IC50: 2 µM

## N=C(N)NCCC[C@H](NC(=O)[C@H](CO)NC(=O)c1ccc(NC(=N)N)cc1)C(=O)NCC(=O)N[C@@H](CC(=O)O)C(=O)N[C@@H](Cc1ccccc1)C(=O)N1CCC[C@H]1C(=O)NCCCC[C@H](NC(=O)[C@@H]1CCCN1C(=O)[C@H](Cc1ccccc1)NC(=O)[C@H](CC(=O)O)NC(=O)CNC(=O)[C@H](CCCNC(=N)N)NC(=O)[C@H](CO)NC(=O)c1ccc(NC(=N)N)cc1)C(N)=O (I: {Benzoyl(4-guanidino)}-SRGDFPK-NH2 / II: {Benzoyl(4-guanidino)}-SRGDFP; amide I:7-II:C)
  IC50: 0.087 µM

## N=C(N)NCCC[C@H](NC(=O)c1ccccc1)C(=O)NCC(=O)N[C@@H](CC(=O)O)C(=O)N[C@@H](Cc1ccccc1)C(=O)NC1CC(NC(=O)[C@H](Cc2ccccc2)NC(=O)[C@H](CC(=O)O)NC(=O)CNC(=O)[C@H](CCCN=C(N)N)NC(=O)c2ccccc2)CC(C(=O)N[C@@H](CCCN=C(N)N)C(=O)NCC(=O)N[C@@H](CC(=O)O)C(=O)N[C@@H](Cc2ccccc2)C(=O)O)C1 (stereo partly specified)
  IC50: 7.4 µM

## N=C(N)NCCC[C@H](NC(=O)c1ccccc1)C(=O)NCC(=O)N[C@@H](CC(=O)O)C(=O)N[C@@H](Cc1ccccc1)C(=O)NCCCC[C@H](NC(=O)[C@H](Cc1ccccc1)NC(=O)[C@H](CC(=O)O)NC(=O)CNC(=O)[C@H](CCCN=C(N)N)NC(=O)c1ccccc1)C(N)=O
  IC50: 2.6 µM

## NC(=O)[C@H](CCCCNC(=O)[C@H](Cc1ccccc1)NC(=O)[C@H](CC(=O)O)NC(=O)CNC(=O)[C@@H](N)CCCN=C(N)N)NC(=O)[C@H](Cc1ccccc1)NC(=O)[C@H](CC(=O)O)NC(=O)CNC(=O)[C@@H](N)CCCN=C(N)N
  IC50: 35 µM

## CCCCCC(=O)N[C@@H](CCCN=C(N)N)C(=O)NCC(=O)N[C@@H](CC(=O)O)C(=O)N[C@@H](Cc1ccccc1)C(=O)N1CCC[C@H]1C(=O)NCCCC[C@H](NC(=O)[C@@H]1CCCN1C(=O)[C@H](Cc1ccccc1)NC(=O)[C@H](CC(=O)O)NC(=O)CNC(=O)[C@H](CCCN=C(N)N)NC(=O)CCCCC)C(N)=O (I: Hexanoyl-RGDFPK-NH2 / II: Hexanoyl-RGDFP; amide I:6-II:C)
  IC50: 1.2 µM

## NCC(=O)N[C@@H](CCCN=C(N)N)C(=O)NCC(=O)N[C@@H](CC(=O)O)C(=O)N[C@@H](Cc1ccccc1)C(=O)NCC(=O)Nc1ccccc1C(=O)NCC(=O)N[C@@H](CCCN=C(N)N)C(=O)NCC(=O)N[C@@H](CC(=O)O)C(=O)N[C@@H](Cc1ccccc1)C(=O)O (H-GRGDFG[2Abz]GRGDF-OH)
  IC50: 63 µM
